Molecular target: T1, AsPC-1 HiBiT-KRASG12D (Homo sapiens, UniProt P01116, G12D)
T1 construct: insert the HiBiT tag onto the N-terminus of one or more of the endogenous KRAS alleles; endogenous in cells; host or cells: AsPC-1 (ATCC CRL-1682), CRISPR-Cas9 knock-in clone, one tagged allele
Assay: HiBiT degradation assay (G12D), AsPC-1 HiBiT-KRASG12D cells
Type: cell-based
Conditions: 24 hours treatment; for Dmax: ASPC1, AsPC-1 HiBiT-KRASG12D cells, maximum degradation observed; for DC50: AsPC-1 HiBiT-KRASG12D cells, HiBiT luminescence
From the text: Reagents. […] SW1573 cells are homozygous for the G12C mutation in KRAS, AsPC-1 cells are homozygous for the G12D mutation, and SW620 cells are homozygous for the G12V mutation. […] For degradation assays, 384 well plates were used. Alamar blue was purchased from ThermoFisher scientific (A50101) and used according to manufacturer instructions. The Nano-Glo® HiBiT Lytic Detection System and Nano-Glo® HiBiT Blotting System were purchased from Promega (#N3050 and #N2410) and used according to manufacturer instructions.
To create the AsPC-1 HiBiT-KRASG12D cell line, CRISPR-Cas9 was used to insert the HiBiT tag onto the N-terminus of one or more of the endogenous KRAS alleles. […] After knock-in of the tag, individual clones were isolated by single cell dilution and screened for HiBiT insertion by PCR. […] This clone was used in further studies.
HiBiT degradation assays (G12C and G12D). […] All assays were performed in triplicate. Cells were treated with compounds for 24 hours at 37° C. in an incubator containing 5% CO2. Following treatment, alamar blue was used to determine if any compounds led to a loss in cell viability after 24 hours. The 10× alamar blue reagent was added to a final concentration of 1× as recommended by the manufacturer and cells were returned to the incubator for 4 hours. Plates were then allowed to equilibrate to room temperature and fluorescence was measured using a Perkin-Elmer EnVision. After completion of the fluorescence read, the liquid from each well was removed and the cells were washed with PBS. The Nano-Glo® HiBiT detection reagent was prepared according to the manufacturer's instructions and added to each well after the PBS wash was removed. Following incubation at room temperature for 45 minutes, the luminescence was read using the ultra-sensitive luminescence aperture on the Envision instrument.
Data analysis. Fluorescence values from the alamar blue treatment were normalized to the DMSO-only control for each compound titration.

T1 sequence (P01116 1-188 isoform P01116-2 G12D): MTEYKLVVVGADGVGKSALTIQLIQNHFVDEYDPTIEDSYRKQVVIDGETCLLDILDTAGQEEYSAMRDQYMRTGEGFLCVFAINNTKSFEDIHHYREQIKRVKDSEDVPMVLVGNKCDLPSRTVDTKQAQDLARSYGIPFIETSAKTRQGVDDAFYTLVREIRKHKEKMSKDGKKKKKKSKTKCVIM

Row | Structure (SMILES) | Dmax [%] | DC50 [nM]
1 | CCc1cccc2cc(O)cc(-c3ncc4c(N5CC6CCC(C5)N6)nc(OCCN5C[C@@H]6CN(c7cc([C@H](C(=O)N8C[C@H](O)C[C@H]8C(=O)N[C@@H](C)c8ccc(-c9scnc9C)cc8)C(C)C)on7)C[C@H]6C5)nc4c3F)c12 (relative stereo) [Compound 77, (2S,4R)-1-[(2R*)-2-{3-[(3aR,6aR)-5-{2-[(4-{3,8-diazabicyclo[3.2.1]octan-3-yl}-7-(8-ethyl-3-hydroxynaphthalen-1-yl)-8-fluoropyrido[4,3-d]pyrimidin-2-yl)oxy]ethyl}-octahydropyrrolo[3,4-c]pyrrol-2-yl]-1,2-oxazol-5-yl}-3-methylbutanoyl]-4-hydroxy-N-[(1S)-1-[4-(4-methyl-1,3-thiazol-5-yl)phenyl]ethyl]pyrrolidine-2-carboxamide] | 80 to 100 | < 600
2 | CCc1cccc2cc(O)cc(-c3ncc4c(N5CC6CCC(C5)N6)nc(OCCN5C[C@@H]6CN(c7cc([C@@H](C(=O)N8C[C@H](O)C[C@H]8C(=O)N[C@@H](C)c8ccc(-c9scnc9C)cc8)C(C)C)on7)C[C@H]6C5)nc4c3F)c12 (relative stereo) [Compound 78, (2S,4R)-1-[(2R*)-2-{3-[(3aR,6aR)-5-{2-[(4-{3,8-diazabicyclo[3.2.1]octan-3-yl}-7-(8-ethyl-3-hydroxynaphthalen-1-yl)-8-fluoropyrido[4,3-d]pyrimidin-2-yl)oxy]ethyl}-octahydropyrrolo[3,4-c]pyrrol-2-yl]-1,2-oxazol-5-yl}-3-methylbutanoyl]-4-hydroxy-N-[(1S)-1-[4-(4-methyl-1,3-thiazol-5-yl)phenyl]ethyl]pyrrolidine-2-carboxamide] | 20 to 60 | 1000 to 3000
3 | CCc1cccc2cc(O)cc(-c3ncc4c(N5CC6CCC(C5)N6)nc(OCCN5C[C@@H]6CN(c7cc(C(C(=O)N8C[C@H](O)C[C@H]8C(=O)N[C@@H](C)c8ccc(-c9scnc9C)cc8)C(C)C)on7)C[C@@H]6C5)nc4c3F)c12 (relative stereo) [Compound 80, (2S,4R)-1-[(2R*)-2-{3-[(3aR,6aS)-5-{2-[(4-{3,8-diazabicyclo[3.2.1]octan-3-yl}-7-(8-ethyl-3-hydroxynaphthalen-1-yl)-8-fluoropyrido[4,3-d]pyrimidin-2-yl)oxy]ethyl}-octahydropyrrolo[3,4-c]pyrrol-2-yl]-1,2-oxazol-5-yl}-3-methylbutanoyl]-4-hydroxy-N-[(1S)-1-[4-(4-methyl-1,3-thiazol-5-yl)phenyl]ethyl]pyrrolidine-2-carboxamide] | 80 to 100 | < 600
4 | CCc1cccc2cc(O)cc(-c3ncc4c(N5CC6CCC(C5)N6)nc(OCCN5CCC(CC6CN(c7cc(C(C(=O)N8C[C@H](O)C[C@H]8C(=O)N[C@@H](C)c8ccc(-c9scnc9C)cc8)C(C)C)on7)C6)CC5)nc4c3F)c12 (relative stereo) [Compound 82, (2S,4R)-1-[(2R*)-2-(3-{3-[(1-{2-[(4-{3,8-diazabicyclo[3.2.1]octan-3-yl}-7-(8-ethyl-3-hydroxynaphthalen-1-yl)-8-fluoropyrido[4,3-d]pyrimidin-2-yl)oxy]ethyl}piperidin-4-yl)methyl]azetidin-1-yl}-1,2-oxazol-5-yl)-3-methylbutanoyl]-4-hydroxy-N-[(1S)-1-[4-(4-methyl-1,3-thiazol-5-yl)phenyl]ethyl]pyrrolidine-2-carboxamide] | 20 to 60 | 600 to 1000
5 | C#Cc1c(F)ccc2cc(O)cc(-c3ncc4c(N5CC6CCC(C5)N6)nc(OCCN5CCC6(CC5)CN(c5cc([C@@H](C(=O)N7C[C@H](O)C[C@H]7C(=O)N[C@@H](C)c7ccc(-c8ccnn8C)cc7)C(C)C)on5)C6)nc4c3F)c12 (relative stereo) [Compound 84, (2S,4R)-1-[(2R*)-2-[3-(7-{2-[(4-{3,8-diazabicyclo[3.2.1]octan-3-yl}-7-(8-ethynyl-7-fluoro-3-hydroxynaphthalen-1-yl)-8-fluoropyrido[4,3-d]pyrimidin-2-yl)oxy]ethyl}-2,7-diazaspiro[3.5]nonan-2-yl)-1,2-oxazol-5-yl]-3-methylbutanoyl]-4-hydroxy-N-[(1S)-1-[4-(1-methyl-1H-pyrazol-5-yl)phenyl]ethyl]pyrrolidine-2-carboxamide] | 60 to 80 | 1000 to 3000
6 | C#Cc1c(F)ccc2cc(O)cc(-c3ncc4c(N5CC6CCC(C5)N6)nc(OCCN5CCC(COc6cc([C@H](C(=O)N7C[C@H](O)C[C@H]7C(=O)N[C@@H](C)c7ccc(-c8ccnn8C)cc7)C(C)C)on6)CC5)nc4c3F)c12 (relative stereo) [Compound 85, (2S,4R)-1-[(2R*)-2-{3-[(1-{2-[(4-{3,8-diazabicyclo[3.2.1]octan-3-yl}-7-(8-ethynyl-7-fluoro-3-hydroxynaphthalen-1-yl)-8-fluoropyrido[4,3-d]pyrimidin-2-yl)oxy]ethyl}piperidin-4-yl)methoxy]-1,2-oxazol-5-yl}-3-methylbutanoyl]-4-hydroxy-N-[(1S)-1-[4-(1-methyl-1H-pyrazol-5-yl)phenyl]ethyl]pyrrolidine-2-carboxamide] | 80 to 100 | < 600
7 | C#Cc1c(F)ccc2cc(O)cc(-c3ncc4c(N5CC6CCC(C5)N6)nc(OCCN5CCC(COc6cc([C@@H](C(=O)N7C[C@H](O)C[C@H]7C(=O)N[C@@H](C)c7ccc(-c8ccnn8C)cc7)C(C)C)on6)CC5)nc4c3F)c12 (relative stereo) [Compound 86, (2S,4R)-1-[(2R*)-2-{3-[(1-{2-[(4-{3,8-diazabicyclo[3.2.1]octan-3-yl}-7-(8-ethynyl-7-fluoro-3-hydroxynaphthalen-1-yl)-8-fluoropyrido[4,3-d]pyrimidin-2-yl)oxy]ethyl}piperidin-4-yl)methoxy]-1,2-oxazol-5-yl}-3-methylbutanoyl]-4-hydroxy-N-[(1S)-1-[4-(1-methyl-1H-pyrazol-5-yl)phenyl]ethyl]pyrrolidine-2-carboxamide] | 80 to 100 | 1000 to 3000
8 | CCc1cccc2cc(O)cc(-c3ncc4c(N5CC6CCC(C5)N6)nc(OCCN5CCC6(CC5)CN(c5cc([C@H](C(=O)N7C[C@H](O)C[C@H]7C(=O)NCc7ccc(-c8scnc8C)cc7)C(C)C)on5)C6)nc4c3F)c12 (relative stereo) [Compound 98, (2S,4R)-1-[(2R*)-2-[3-(7-{2-[(4-{3,8-diazabicyclo[3.2.1]octan-3-yl}-7-(8-ethyl-3-hydroxynaphthalen-1-yl)-8-fluoropyrido[4,3-d]pyrimidin-2-yl)oxy]ethyl}-2,7-diazaspiro[3.5]nonan-2-yl)-1,2-oxazol-5-yl]-3-methylbutanoyl]-4-hydroxy-N-{[4-(4-methyl-1,3-thiazol-5-yl)phenyl]methyl}pyrrolidine-2-carboxamide] | 80 to 100 | < 600
9 | CCc1cccc2cc(O)cc(-c3ncc4c(N5CC6CCC(C5)N6)nc(OCCN5CCC6(CC5)CN(c5cc([C@@H](C(=O)N7C[C@H](O)C[C@H]7C(=O)NCc7ccc(-c8scnc8C)cc7)C(C)C)on5)C6)nc4c3F)c12 (relative stereo) [Compound 99, (2S,4R)-1-[(2R*)-2-[3-(7-{2-[(4-{3,8-diazabicyclo[3.2.1]octan-3-yl}-7-(8-ethyl-3-hydroxynaphthalen-1-yl)-8-fluoropyrido[4,3-d]pyrimidin-2-yl)oxy]ethyl}-2,7-diazaspiro[3.5]nonan-2-yl)-1,2-oxazol-5-yl]-3-methylbutanoyl]-4-hydroxy-N-{[4-(4-methyl-1,3-thiazol-5-yl)phenyl]methyl}pyrrolidine-2-carboxamide] | 20 to 60 | > 3000
10 | CCc1cccc2cc(O)cc(-c3ncc4c(N5CC6CCC(C5)N6)nc(OC[C@@]56CCCN5[C@H](COC(=O)N5CCN(c7cc([C@H](C(=O)N8C[C@H](O)C[C@H]8C(=O)N[C@@H](C)c8ccc(-c9scnc9C)cc8)C(C)C)on7)CC5)CC6)nc4c3F)c12 (relative stereo) [Compound 107, [(3R*,7aR**)-7a-{[(4-{3,8-diazabicyclo[3.2.1]octan-3-yl}-7-(8-ethyl-3-hydroxynaphthalen-1-yl)-8-fluoropyrido[4,3-d]pyrimidin-2-yl)oxy]methyl}-hexahydro-1H-pyrrolizin-3-yl]methyl 4-{5-[(2R***)-1-[(2S,4R)-4-hydroxy-2-{[(1S)-1-[4-(4-methyl-1,3-thiazol-5-yl)phenyl]ethyl]carbamoyl}pyrrolidin-1-yl]-3-methyl-1-oxobutan-2-yl]-1,2-oxazol-3-yl}piperazine-1-carboxylate] | 80 to 100 | < 600

Reference: patent US20250206732A1, “COMPOUNDS AND METHODS FOR THE TARGETED DEGRADATION OF KRAS” (Arvinas Operations, Inc., priority 2022, published 2025)
